Here are results for two molecules from US20130260391A1, “Method Of Determining The Protease Cathepsin B In A Biological Sample” (priority 2010, published 2013).

The target in the experiment is T1, cathepsin B (Homo sapiens, UniProt P07858).
T1 construct: Conversion of procathepsin B in the sample into the active form of cathepsin B; from tissue; host or cells: serum sample
The experiment is described as follows: enzyme assay of cathepsin B activity in deinhibited serum sample with substrate Z-Arg-Arg-AFC (fluorescence). It is filed as biochemical. To be noted: inhibitor added to the enzyme assay after withdrawing the protease inhibitor; compared with the signal before withdrawing the inhibitor. How it is done:
6) Measuring the activity of cathepsin B in the sample
To 110 μl of the serum samples, which have been treated as described, in 0.5 ml reaction vessels 110 μl of a solution of the substrate (70 μM Z-Arg-Arg-AFC) are added, the pH-value of which is set at pH=6 by phosphate buffer and which contains 5 mM EDTA and 10 mM DTE. After mixing the samples are incubated for 120 min at 37° C. Subsequently the reaction vessels are cooled down with ice, centrifuged for a short time so as to bring the water condensed at the cap of the reaction vessel back to the solution and then the fluorescence emission is recorded, either on a microtiter plate by means of a fluorescence reader or in a cuvette by means of a fluorimeter. The excitation wavelength is at about 400 nm, and a suitable detection wavelength is at about 505 nm.
Thus evidence is established that the value measured in the enzyme assay after withdrawing the inhibitor relates to cathepsin B which is set free.

Take `CCCNC(=O)[C@H]1O[C@@H]1C(=O)N[C@H](C(=O)N1CCC[C@H]1C(=O)O)[C@@H](C)CC` [CA-074]: the “measurement signal of the enzyme assay after addition of the inhibitor” value is recorded as “the same as the measuring signal, which is obtained, when the enzyme assay is carried out before withdrawing the inhibitor”.

For the molecule `CC(C)C[C@H](NC(=O)[C@H]1O[C@@H]1C(=O)O)C(=O)NCCCCN=C(N)N` [E 64], the “measurement signal of the enzyme assay after addition of the inhibitor” value was “the same as the measuring signal, which is obtained, when the enzyme assay is carried out before withdrawing the inhibitor”.
